How the values were obtained:
α5β1 integrin = assay: Integrin binding by cross-linking/extraction/reversal technique; format: cell-based, rat; settings: equimolar tethered brushes; vs RGD-tethered brushes and serum-exposed titanium
Experimental: (§1) In vitro evaluation of these engineered titanium surfaces was performed using primary rat bone marrow stromal cells since this heterogeneous population contains osteoprogenitors, and human bone marrow stromal cells are currently used in clinical applications. Cell adhesion was examined using a centrifugation assay that applies a controlled detachment force. To allow direct comparisons between ligand-tethered surfaces, an equimolar ligand density of 0.9 pmol/cm^2 was used; this value represents the highest ligand density that could be ascribed for both surfaces to be equimolar. […] As a complementary test of integrin specificity, integrin binding was quantified using a biochemical cross-linking/extraction/reversal technique.

MC3T3-E1 cells = assay: Centrifugation cell adhesion assay on ligand-tethered SAMs; format: cell-based, murine; settings: for ADH50 (ligand density required for half-maximal adhesion): ligand tethered to SAMs, MC3T3-E1
Experimental: MC3T3-E1 murine immature osteoblast-like cells (Riken Cell Bank, Hirosawa, Japan) were used because of their expression of multiple integrins, including alpha5beta1, alpha2beta1, and alphaVbeta3. Cells were maintained at 37° C. in α-MEM supplemented with 10% FBS and 1% penicillin-streptomycin and passaged every 2-3 days via standard culture techniques.
Self-assembled monolayers (SAMs) of alkanethiols on gold were used to present well-defined, ordered surfaces with anchoring groups within a non-fouling background. Tri(ethylene glycol)-terminated alkanethiol (HS—(CH2)11—(OCH2CH2)3—OH; EG3) and carboxylic acid-terminated alkanethiol (HS—(CH2)11—(OCH2CH2)6—OCH2COOH; EG6-COOH) were previously synthesized and characterized. Gold-coated substrates were prepared by sequential deposition of titanium (100 Å) and gold (200 Å) films via an electron beam evaporator (Thermionics Laboratories, Hayward, Calif., 2×10^−6 Torr, 1 A/s) onto clean 6-well plate lids or glass coverslips. Mixed SAM surfaces were prepared on substrates by immersing in a 1.0 mM mixed solution of EG3/EG6-COOH thiols (4 h). Peptide ligands were tethered using standard peptide chemistry. Briefly, following washing in ethanol and ultrapure H2O, SAMs were incubated in 2.0 mM EDC and 5.0 mM NHS in 0.1 M 2-(N-morpho)-ethanesulfonic acid and 0.5 M NaCl (pH 6.0), and subsequently immersed in a 20 mM solution of 2-mercaptoethanol in deionized H2O. Adhesive ligands in PBS were then incubated on the activated supports for 30 min and the unreacted surface NHS esters were then quenched in 20 mM glycine. Finally, the surfaces were blocked in 1% heat-denatured bovine serum albumin (BSA) and then incubated overnight in DPBS to reduce nonspecific protein adsorption.
A modification of a centrifugation assay was used to apply controlled detachment forces to cells adhering to engineered surfaces. Multi-wells of engineered surfaces were created on gold-coated polystyrene plate lids using silicone gaskets (Grace Bio-Labs, Bend, Oreg.). Mixed SAMs were assembled and ligands tethered at varying densities. MC3T3-E1 cells were labeled with […] calcein-AM, a membrane-permeable green fluorescent dye, in 2 mM dextrose-DPBS for 30 min and resuspended in α-MEM with 10% FBS. Cells were seeded onto the surfaces at 200 cells/mm^2, and allowed to attach for 1 h at 37° C. For blocking antibody experiments, cells were incubated in the presence of function-perturbing antibodies (10 μg/ml) for 10 min with gentle agitation prior to cell seeding. Before centrifugation, cell images were taken using a Nikon TE-300 fluorescence microscope and Spot RT digital camera. Wells were then filled completely with dextrose-PBS, sealed, inverted, and centrifuged for 5 min at a prescribed speed on a Beckman Allegra 6 centrifuge (GH 3.8 rotor) to apply normal detachment forces. Media was then gently aspirated from the wells, and wells were refilled for post-spin image collection. Post/pre-spin cell ratios were determined by image analysis, and this adhesive fraction was plotted against ligand surface density to obtain cell adhesion profiles.

FAK = FAK phosphorylation on ligand-tethered brush surfaces with integrin blocking antibodies; format: cell-based, rat; settings: for effect of integrin blocking antibodies on FAK phosphorylation: anti-α5 and anti-β3 antibodies
Experimental: Cells were detached and gently agitated in serum-free suspension for 45 min to reduce background. Cells were then seeded at 200 cells/mm^2 serum-free for 1 h. Cells were lysed in RIPA buffer (1% Triton X-100, 1% sodium deoxycholate, 0.1% SDS, 150 mM NaCl, 150 mM Tris-HCl (pH 7.2), 350 μg/ml PMSF, 10 μg/ml leupeptin, and 10 μg/ml aprotonin) for 20 min on ice. Samples were pipetted up and down 20 times and centrifuged at 8000 g for 10 min to shear DNA and isolate protein contents. Total protein was quantified using micro-BCA (Pierce). Equal amounts of protein were boiled for 10 min in Laemmli buffer and separated by SDS-PAGE on a 7% gel, transferred to nitrocellulose membranes, and blocked with Blotto (5% nonfat dry milk, 0.20% Tween-20) overnight at 4° C. Membranes were gently rocked in antibodies against FAK and specific phosphorylated FAK tyrosine residues (anti-total FAK at 1 μg/ml, anti-FAK pY397 at 0.35 μg/ml, anti-FAK pY576 at 0.5 μg/ml) for 1 h. After washing with TBS-Tween (20 mM Tris HCl pH 7.6, 137 mM NaCl, 0.1% Tween-20), secondary antibody (biotin-conjugated anti-rabbit IgG; 1:20,000) was added for 1 h, followed by alkaline phosphatase-conjugated anti-biotin antibody (1:10,000) in Blotto. Immunoreactivity was assessed by ECF fluorescent substrate. FAK bands were visualized by a Fuji Image Analyzer and phosphorylation levels normalized to total FAK.
FAK is an intracellular signaling molecule involved in integrin-mediated signal transduction and the osteogenic differentiation pathway. Phosphotyrosine-specific antibodies were used to examine the activation state of three important tyrosines in FAK: Y397 (autophosphorylation site), Y576 (essential for maximal kinase activity), and Y861 (major Src phosphorylation site) (FIG. 13C). […] These differences in integrin binding specificity and FAK activation modulate cell signaling pathways and higher order cellular activities.

αvβ3 integrin = assay: Integrin binding by cross-linking/extraction/reversal technique; format: cell-based, rat; settings: equimolar tethered brushes; vs FNIII7-10 support
Experimental: as §1

[1] = maximum ligand density, normalized to unblocked controls
[2] = vs RGD-functionalized brushes and serum-exposed titanium

Substance	bound α5β1 integrin (α5β1 integrin)	ADH50 (ligand density required for half-maximal adhesion) (MC3T3-E1 cells) [fmol/cm^2]	adhesion with blocking antibodies against α5β1 integrin (MC3T3-E1 cells; [1])	reduction of adhesion by antibodies against β3 integrin subunit (MC3T3-E1 cells; [1])	effect of integrin blocking antibodies on FAK phosphorylation (FAK)	FAK Y397 phosphorylation (FAK; [2])	FAK Y576 phosphorylation (FAK; [2])	bound αvβ3 integrin (αvβ3 integrin)	FAK Y861 phosphorylation (FAK; relative to FNIII7-10-tethered surface)
FNIII7-10: monobiotinylated recombinant fibronectin fragment spanning the 7-10th type III repeats of fibronectin; α5β1 integrin ligand	significantly higher levels of bound α5β1 integrin	70	reduced adhesion to background levels	did not alter adhesion significantly	blocking antibodies against α5, but not β3, reduced the levels of phospho-Y397 and Y576	higher phosphorylation levels	higher phosphorylation levels	–	–
GRGDSPC [RGD peptide, linear RGD oligopeptide purchased from BACHEM; primarily supports αvβ3-mediated adhesion, reference compound]	–	2300	only slightly reduced adhesion	–	only the anti-β3 antibody reduced FAK phosphorylation	–	–	higher levels of bound αvμ3	elevated

— patent US8445006B2, “Biomolecular coating for implants” (Georgia Tech Research Corporation, priority 2006, dated 2013)
